In publication PMC6272279, “Carboxylated Acyclonucleosides: Synthesis and RNase A Inhibition” (Molecules, 2015):

Key:
RNase A [1] = target: T1, RNase A (Bos taurus, UniProt P61823); experiment: Comparative agarose gel-based assay of RNA degradation by RNase A; format: biochemical, Bovine; settings: inhibitor 0.5 mM, RNase A 1 µM, RNA 10 mg/mL
T1 construct: purchased
T1 sequence (P61823 27-150): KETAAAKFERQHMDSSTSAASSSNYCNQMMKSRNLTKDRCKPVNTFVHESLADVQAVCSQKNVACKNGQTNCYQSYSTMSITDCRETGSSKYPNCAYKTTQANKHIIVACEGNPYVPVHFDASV
Method: Qualitative indication of RNase A inhibition by the synthetic inhibitors was obtained from a comparative agarose gel-based assay by monitoring the degradation of RNA by RNase A (Figure 2 and Figure 3). The most intense band observed in lane I in each gel is due to the presence of only RNA. […] These experimental observations reaffirmed our assumption that increasing the acidity of the molecules leads to an increase in the inhibitory property of the inhibitor.
Inhibition of RNase A was assayed qualitatively by the degradation of RNA in an agarose gel. In this method, 20 μL of RNase A (1 μM) was mixed with 20 μL (0.5 mM) of compounds U-ol-ol (5), C-ol-ol (16), U-acid (3), C-acid (14), U-ol-acid (8), C-ol-acid (18), U-di-acid (10), and C-di-acid (21) separately to a final volume of 50 μL and the resulting solutions incubated for 3 h. Twenty-microliter aliquots of the incubated mixtures were then mixed with 20 μL of RNA solution (10.0 mg/mL RNA, freshly dissolved in RNase free water) and incubated for another 30 min. Then 10 μL of sample buffer (containing 10% glycerol and 0.025% bromophenol blue) were added to this mixture and 15 μL from each solution were extracted and loaded onto a 1.1% agarose gel. The gel was run using a 0.04-M Tris-Acetic acid-EDTA (TAE) buffer (pH 8.0). The residual RNA was visualized by ethidium bromide staining under UV light.

RNase A [2] = target: T1, RNase A; experiment: Inhibition kinetics with RNase A (UV, 2',3'-cCMP substrate, Lineweaver–Burk plot); format: biochemical, Bovine; settings: 0.1-M Mes-NaOH buffer pH 6.0, 0.1 M NaCl, substrate 2',3'-cCMP; mean ± SD; read-out: Inhibition constant Ki
Method: In order to determine the type of inhibition and the inhibition constant (Ki) values, kinetic experiments were performed with compounds U-ol-acid (8), U-di-acid (10), C-ol-acid (18), and C-di-acid (21). The competitive nature of inhibition in all the cases was apparent from the nature of the Lineweaver–Burk plots obtained from the kinetic experiments (Figure 4 and Figure S1 (SI)).
A quantitative account of RNase A inhibition by the individual inhibitors was obtained by a UV spectroscopic method described by Anderson and co-workers. The assay was performed in a 0.1-M Mes-NaOH buffer, pH 6.0 containing 0.1 M NaCl using 2',3'-cCMP as the substrate. The inhibition constants were calculated from initial velocity data using a Lineweaver–Burk plot. The slopes from the Lineweaver–Burk double reciprocal plot were plotted against the corresponding inhibitor concentrations to get inhibition constants (Ki).

RNase A [3] = target: T1, RNase A; experiment: Circular dichroism of RNase A secondary structure with inhibitor; parameters: species or system Bovine; settings: RNase A 30 µM mixed with inhibitor 30 µM, 3 h; native RNase A 22.7%
Method: Inhibitors of RNase A are known to perturb the secondary structure of the enzyme upon binding. […] Therefore, the probable changes in the secondary structure of the enzyme by the inhibitors were monitored by observing the CD spectra of RNase A in the absence or presence of compounds U-di-acid (10) and C-di-acid (21) (Figure 5).
Circular Dichroism (CD) was performed in order to monitor the changes in the secondary structure of the enzyme as a result of interaction with the inhibitors. In this method, 200 µL of RNase A (30 µM) were mixed separately with 200 µL of U-di-acid (10) (30 µM) and C-di-acid (21) (30 µM) and incubated for 3 h. From the resulting solutions, an aliquot of 300 µL was used for CD measurements, taking a 1 mm path length quartz cell. The spectra were recorded in the range of 190–240 nm with a scan rate of 50 nm/min. Three scans were accumulated for each spectrum. The secondary structure was determined using an online server, DICHROWEB [46].

Compound	melting point [°C]	RNase A inhibition, relative band intensities in agarose gel (RNase A [1])	Ki (RNase A [2]) [µM]	α-helix content of RNase A upon binding (RNase A [3]) [%]
Nc1ccn(CC(=O)NCC(=O)O)c(=O)n1 [C-acid (14), [2-(4-Amino-2-oxo-2H-pyrimidin-1-yl)acetylamino] acetic acid]	> 200	–	–	–
Nc1ccn(CC(=O)N(CC(=O)O)CC(=O)O)c(=O)n1 [C-di-acid (21), {[2-(4-Amino-2-oxo-2H-pyrimidin-1-yl)-acetyl]carboxymethylamino}acetic acid]	190 to 193	relatively more potent inhibitors	235 ± 9	29.2

Next, values leading:

melting point [°C]	RNase A inhibition, relative band intensities in agarose gel (RNase A [1])	Ki (RNase A [2]) [µM]	α-helix content of RNase A upon binding (RNase A [3]) [%]	Compound
–	relatively more potent inhibitors	356 ± 7	–	Nc1ccn(CC(=O)N(CCO)CC(=O)O)c(=O)n1 [C-ol-acid (18), [[2-(4-Amino-2-oxo-2H-pyrimidin-1-yl)acetyl]-(2-hydroxyethyl)amino] acetic acid]
118 to 120	relatively more potent inhibitors	301 ± 15	24.7	O=C(O)CN(CC(=O)O)C(=O)Cn1ccc(=O)[nH]c1=O [U-di-acid (10), {Carboxymethyl-[2-(2,4-dioxo-3,4-dihydro-2H-pyrimidin-1-yl)acetyl]amino}acetic acid]
177 to 179	relatively more potent inhibitors	454 ± 9	–	O=C(O)CN(CCO)C(=O)Cn1ccc(=O)[nH]c1=O [U-ol-acid (8)]
